Laboratory results taken from publication doi:10.1101/2025.02.02.636098v1 (biorxiv, 2025).

Experiments:
mFFA4 (mouse FFA4) [1] = target: T1, mFFA4 (mouse FFA4) (Mus musculus, UniProt Q7TMA4); test: bystander BRET arrestin-3 recruitment, HEK293T; assay type: cell-based
T1 sequence (Q7TMA4 1-361): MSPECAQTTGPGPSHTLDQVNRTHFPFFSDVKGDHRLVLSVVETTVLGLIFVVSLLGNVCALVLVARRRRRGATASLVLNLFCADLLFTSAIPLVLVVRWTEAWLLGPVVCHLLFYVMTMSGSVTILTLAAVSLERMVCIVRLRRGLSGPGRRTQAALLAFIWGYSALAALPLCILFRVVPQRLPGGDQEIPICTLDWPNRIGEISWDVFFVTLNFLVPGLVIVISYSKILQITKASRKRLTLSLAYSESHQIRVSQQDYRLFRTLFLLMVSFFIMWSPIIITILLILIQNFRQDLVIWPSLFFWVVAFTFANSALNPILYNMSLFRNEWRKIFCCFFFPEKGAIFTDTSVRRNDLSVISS

mFFA4 (mouse FFA4) [2] = target: T1, mFFA4 (mouse FFA4); test: Ca2+ mobilisation, Fura-2, Flp-In T-REx […]; assay type: cell-based

SMILES	IC50 (mFFA4 (mouse FFA4) [1])	EC50 (mFFA4 (mouse FFA4) [2])
Cc1ccc(S(=O)(=O)NC2c3ccccc3Oc3ccccc32)cc1 [AH7614, 4-Methyl-N-9H-xanthen-9-yl-benzenesulfonamide]	200 nM	–
CC/C=C\C/C=C\C/C=C\CCCCCCCC(=O)O [aLA]	–	10 µM
